How the values were obtained:
pS6 positive cells = test: Number of pS6 positive cells in zebrafish model of TSC; format: in vivo; conditions: for effect on average number of pS6 positive cells: Danieau's incubated
Source text: A zebrafish model of TSC with a tsc2 gene deletion was used. This model has been previously published and validated (Kim et al. 2011). By mating the gene deletion animals with wild-type tsc2+/+ animals, heterozygote (tsc2+/−) zebrafish were also obtained and tested in this example.
For both pS6 and TUNEL staining, non-consecutive sections were imaged using a Zeiss AxioImager microscope. Exposure time was kept constant during image acquisition and determined by the observation of a slide where primary antibody or enzyme solution was omitted. Pictures were taken with a 20× objective, using the AxioVision software, and coloured using Fiji ImageJ. All counting and measuring of cells was done in the original black and white pictures.
Statistical analysis was performed in SPSS (IBM SPSS Statistics 22), except for the chi-square test, which was done using GraphPad Prism 5. Normality and sphericity were tested using the Kolmogorov-Smirnov and Mauchly's tests, respectively. Repeated measures two-way ANOVA tests were used to analyse the locomotor assay data and cell number, while a three-way ANOVA test was used to analyse cell size. Touch response (TR) between genotypes and treatments was analysed by chi-square test. Tests were followed by Tukey or Bonferroni post-hoc tests.
To explore mTOR pathway activation in the different genotypes and treatments, immunohistochemistry was performed using a pS6 (Ser235/236) antibody.
To better understand the apparent differences between groups, pS6 positive cells were counted for each genotype and treatment. A significant main effect of genotype was found, with tsc2−/− zebrafish sections showing more pS6 positive cells in the brain than tsc2+/+ and tsc2+/−(+173.3%) (FIG. 4A).

Miapaca = test: Drug combination assay (MTT, CalcuSyn) of Rad001 and CBD in Miapaca; format: cell-based, Homo sapiens
Procedure: For the study of the synergism between Rad001 and CBD on pancreatic cell lines Miapaca was tested, the cells were seeded in 96-multiwell plates at the density of 3.8 10^3 cells/well. After 24 hr incubation at 37° C., the cells were treated with different concentrations of Rad001 and CBD. Different molar ratios between two drugs in different sequences of administration were tested, (Rad001 for 48 h and CBD for 72 h or Rad001 for 72 h and CBD for 48 h and in co-administration for 72 h.
The proliferative response was estimated by colorimetric 3-(4,5 di-methylthiazol-2-yl)-2,5-diphenyltetrazolium bromide (MIT) test. MTT conversion to formazan by metabolically viable cells was monitored by spectrophotometer at an optical density of 570 nm. Each data point represents the average of three separate experiments with each experiment containing four wells. Drug combination studies were based on concentration-effect curves generated as a plot of the fraction of unaffected (surviving) cells versus drug concentration after treatment.
To explore the relative contribution of each agent to the synergism equi-active doses of […] were tested (IC50). Assessment of synergy was performed quantitating drug interaction by Calcusyn computer program (Biosoft, Ferguson, MO). Combination index (CI) values of <1, 1, and >1 indicate synergy, additivity and antagonism, respectively.
Dose reduction index (DRI) representing the measure of how much the dose of each drug in a combination may be reduced at a given effect level compared with the doses of each drug alone.
The effects of the pharmacological combination between CBD and RAD001 on the proliferation MIAPACA cell lines, using MTT assay were studied. The data obtained were processed with dedicated program, CalcuSyn (Chou and Talalay, Biosoft, Oregon, USA), which measures synergism.
The specific contribution of CBD and Rad001 on the cytotoxic effect of the combination of drugs was analyzed by calculating the potentiation factor (PF) defined as the ratio of the IC50 of either CBD or Rad001 alone to the IC50 of CBD and Rad001 in combination. A higher PF indicates a greater cytotoxicity.

Miapaca cells = test: MTT cell viability assay in Miapaca; format: cell-based; conditions: Homo sapiens, MIA PaCa-2, 72 h, FIG. 6B, read-out: concentration at which 50% growth inhibition was reached
Procedure: MIAPACA is a Homo sapiens pancreas carcinoma. This is a hypotriploid human cell line.
Cell viability was analyzed by the MTT [3-(4,5-dimethylthiazol-2-yl)-2,5-diphenyl tetrazolium bromide] assay. Pancreatic cancer cells were seeded onto each well of a 96-well plate. After 72 h of treatment with CBD, MTT solution 5 mg/ml in PBS was added to each well. The plates were then incubated at 37° C. for an additional 4 h to allow MTT to form formazan crystals by reacting with metabolically active cells. The formazan crystals were solubilized in a 1N isopropanol/HCl 10% solution at 37° C., on a shaking table for 20 min. The absorbance values of the solution in each well were measured at 570 nm using a microplate reader. Cell viability was determined by the formula: cell viability (%)=(absorbance of the treated wells−absorbance of the blank control wells)/(absorbance of the negative control wells−absorbance of the blank control wells)×100%. All MTT experiments were performed in triplicate and repeated at least three times.

AML 621-101 cells = test: Tumour spheroid growth (soft agar) assay in AML 621-101 cells; format: cell-based; conditions: 10 μM CBD
Procedure: (i) Angiomyolipomas (AML) cells derived from a Tuberous Sclerosis Complex patient (621-101 cell-line), with a known loss of function of TSC2. […] Zeocin™ was purchased from LifeTechnologies (cat no: R25001) and was used to originally generate the stable cell line (by Prof. Lisa Henske) over two weeks of Zeocin™ selection and then for continued maintenance of the cells in tissue culture (at 100 μg/ml).
The stock concentration of CBD was made to 20 mM in dimethyl sulfoxide (DMSO). CBD was added to culture media to final concentrations of either 5 μM or 10 μM, as indicated). The final concentration of the DMSO in the cell culture medium was at a maximum level of 0.05% (v/v).
Two-layered soft agar assays were carried out in 6-well plates. All cell lines were plated in complete DMEM media in 0.35% (v/v) agar at (3*10^5) over a 0.6% (v/v) agar layer. The agar was then overlaid with complete DMEM media and spheroids were grown for 14 days at 37° C. in 5% CO2. Media were changed twice a week and new drug was added to media. Pictures were taken using an inverted AMG EVOS microscope equipped with an Olympus camera. Volume of tumour spheroids was measured using ImageJ software.

C=C(C)[C@@H]1CCC(C)=C[C@H]1c1c(O)cc(CCCCC)cc1O [CBD, Cannabidiol]
change in average number of pS6 positive cells (pS6 positive cells; main effect of treatment, compared to DMSO group, FIG. 4B): −77.1% | change in average number of pS6 positive cells (pS6 positive cells; main effect of treatment, compared to Danieau's group, FIG. 4B): −63.2% | effect on average number of pS6 positive cells (pS6 positive cells; tsc2+/+ zebrafish): no significant effect | effect on average number of pS6 positive cells (pS6 positive cells; tsc2+/− zebrafish): no significant effect | change in average number of pS6 positive cells (pS6 positive cells; tsc2−/− zebrafish, for the DMSO group, FIG. 4C): −58.9% | change in average number of pS6 positive cells (pS6 positive cells; tsc2−/− zebrafish, for the Danieau's group, FIG. 4C): −55.4% | IC50 (Miapaca; Homo sapiens, MIA PaCa-2, Miapaca, 50% effect level, read-out: Dose of drug alone): 3.6 µM | DRI50 (Miapaca; Miapaca, Rad/CBD combination, dose reduction index): CBD 7.1 | potentiation factor (PF) (Miapaca; ratio of IC50 alone to IC50 of CBD and Rad001 in combination): 8 | IC50 (Miapaca cells): 15 µM | tumour spheroid formation (AML 621-101 cells): sufficient to block tumour spheroid formation

— US12263139B2, “Use of cannabidiol in the treatment of tuberous sclerosis complex” (Jazz Pharmaceuticals Research UK Limited, priority 2017, dated 2025)
